Reference: a melting point compilation (Tetko et al.; mined from patent text by program, amines drawn as free bases though some values may be those of a salt)

SMILES | melting point
CCOC(=O)c1cn(NCC=O)c2c(OCc3ccccc3)c(F)c(F)cc2c1=O | 180 to 181 °C
CS(=O)(=O)N[C@@H](CCCCN)C(=O)NC[C@H](CC1(C(=O)N[C@@H](Cc2ccc(O)cc2)C(=O)O)CCCC1)C(=O)O | 237 to 238 °C
CCc1noc(-c2ncn(-c3cccc(Oc4ccc(Cl)cc4)c3)c2COC)n1 | 68 to 70 °C
CCOC(=O)c1c[nH]c(=S)n1C1CCc2cc(F)cc(F)c2C1 (stereo not drawn) | 187 to 189 °C
CCOC(=O)N1CCN(c2nc(NC3CC3)ccc2[N+](=O)[O-])CC1 | 100 to 103 °C
CC(=O)Cc1nc2ccccc2s1 | 118 to 119 °C
Cc1ncn(Nc2ccccc2)c1-c1ccccc1 | 165 to 167 °C
C=CC1=C(C)c2cc3[nH]c(cc4nc(cc5[nH]c(cc1n2)c(C)c5CCC(=O)OCCN(C)C)C(CCC(=O)OCCN(C)C)=C4C)c(C)c3C=C | 187 to 191 °C
CC(C)N1CC(C(S)Oc2cccc3cnccc23)OC1=O (stereo not drawn) | 237 to 239 °C
CCOC(=O)[C@@H]1C[C@H]([N+](=O)[O-])[C@@H](C(=O)O)[C@H](OC(CC)CC)[C@@H]1Sc1ccc(C)cc1 | 135 to 136 °C
O=c1[nH]c2ncc(-c3ccn[nH]3)nc2n1CC1CCCCC1 | 264 to 266 °C
CC(=O)OCc1nc2cc3c(cc2c(=O)n1COC(=O)C(C)(C)C)C(=O)CC3 | 144 °C
CN(C)CCNc1ccc(NCCN(C)C)c2c1C(=O)c1ccc(O)c(O)c1C2=O | 133 to 135 °C
CCN1C(=O)C(C)Oc2ccc(-n3c(=O)cc(C(F)(F)F)n(C)c3=O)cc21 (stereo not drawn) | 221 to 222 °C
Cc1cccc(COCc2cccc(OCc3ccc4ccccc4n3)c2)c1C(=O)O | 39 to 65 °C
Cc1nnc(-c2ccc3occ(-c4ccc(S(C)(=O)=O)c(Cl)c4)c3c2)o1 | 204 to 205 °C
CC(=O)NCc1ccc(CN2CCN(c3ccc(N)cc3)CC2)cc1 | 198 to 200 °C
CN1CCN(c2c3c(nc4cc(Cl)ccc24)CCN(C)C3)CC1 | 114 to 115 °C
COc1noc2c1CN(C(C)=O)CC2 | 40 to 42 °C

SMILES | melting point
O=C(Nc1cccc(C(F)(F)F)c1)Nc1ccc2[nH]c(C(F)(F)F)nc2c1 | 213 to 215 °C
CC(C)C(=O)Nc1cccn1C | 122 to 124 °C
CCCCSc1cc(N)c([N+](=O)[O-])cc1N | 129 °C
O=C(CN1CCC(OCc2ccccc2)CC1)Nc1ccc2c(c1)OCC(=O)N2 | 238 to 240 °C
Cc1c(CO)c(CO)c2n1Cc1ccccc1C2 | 99 to 101 °C
CC(=O)NCCn1c(=O)[nH]c2ccccc21 | 153 °C
Cc1c(CC2CCc3c(c4ccccc4n3Cc3ccccc3)C2=O)ncn1C(c1ccccc1)(c1ccccc1)c1ccccc1 (stereo not drawn) | 78 to 80 °C
Cc1c(C)c2c(c(C)c1O)CC[C@](C)(C(=O)N[C@H]1CCOC1=O)O2 | 195 to 196 °C
CSc1[nH]cc(CCc2ccccc2)c1[N+](=O)[O-] | 198 to 200 °C
COC(=O)c1ccc(OC(=O)c2ccc(OC)c(C34CC5CC(CC(C5)C3)C4)c2)cc1O | 125 to 127 °C
O=C1Nc2ccc(F)cc2C(C#Cc2ccccn2)(C(F)(F)F)N1 (racemic) | 155 °C
c1ccc(C2CCN(CC34CC(c5ccccc53)c3ccccc34)CC2)cc1 | > 300 °C
Cc1ccc2c([N+](=O)[O-])c(Cl)ccc2n1 | 123 to 124 °C
OC(C#Cc1ccncc1)c1ccccc1 (stereo not drawn) | 93 to 96 °C
CCc1nc(N)nc(N)c1-c1ccc(NCc2ccccc2)c([N+](=O)[O-])c1 | 253 to 255 °C
COc1cc(OC)cc(-c2nc[nH]c2-c2ccc(OC)c(O)c2N)c1 | 148 °C
CCNc1nc(NCCN2CCCC2)nc(Nc2ccc(OC)cc2)n1 | 29 to 31 °C
CCOC(=O)C(Cc1ccccc1)NC(=O)N1CCc2cc(S(=O)(=O)N3CCN(c4cccc(Cl)c4)CC3)ccc21 (stereo not drawn) | 123 to 124 °C
CC(C)(C)Nc1c(NCc2cccc(OC(F)(F)F)c2)c(=O)c1=O | 210 to 212 °C
